According to US20060183888A1 (priority 2004, published 2006):

Assays:
NMR H/D exchange studies = type: physicochemical
Experimental: Compound 7 (˜4 mg, ˜10 μmol) was dissolved in CD3OD (0.75 mL), and D2O (2 drops) was added. The reaction mixture was kept at rt and monitored by NMR (400 MHz). […] NaOD (30% w/w in D2O, 2 drops) was then added, and the solution monitored by NMR. […] After 25 h, the C5 proton peak completely disappeared.
To rule out the possibility that the loss of the C5 proton peak was due to decomposition, the resulting mixture was evaporated at rt under reduce pressure, and the residue was redissolved in CH3OH and allowed to stir for 1 day. The mixture was then evaporated to dryness in vacuo, and redissolved in CD3OD. The NMR spectrum was quickly taken, and the C5 proton peak was again observed. As before, the C5 proton peak slowly disappeared over a 1-day period.
To evaluate the importance of the imine bond on the acidity of the C5 proton, proline was dissolved in 0.75 mL CD3OD and 0.20 mL D2O and treated with […].

PylS-His6 [1] = target: T1, PylS-His6 (Methanosarcina barkeri, UniProt Q6WRH6); assay: Aminoacylation of tRNACUA, acid-urea gel shift and northern blot; type: biochemical; parameters: made in house; host or cells: E. coli BL21 (DE3)
T1 sequence (Q6WRH6 whole entry): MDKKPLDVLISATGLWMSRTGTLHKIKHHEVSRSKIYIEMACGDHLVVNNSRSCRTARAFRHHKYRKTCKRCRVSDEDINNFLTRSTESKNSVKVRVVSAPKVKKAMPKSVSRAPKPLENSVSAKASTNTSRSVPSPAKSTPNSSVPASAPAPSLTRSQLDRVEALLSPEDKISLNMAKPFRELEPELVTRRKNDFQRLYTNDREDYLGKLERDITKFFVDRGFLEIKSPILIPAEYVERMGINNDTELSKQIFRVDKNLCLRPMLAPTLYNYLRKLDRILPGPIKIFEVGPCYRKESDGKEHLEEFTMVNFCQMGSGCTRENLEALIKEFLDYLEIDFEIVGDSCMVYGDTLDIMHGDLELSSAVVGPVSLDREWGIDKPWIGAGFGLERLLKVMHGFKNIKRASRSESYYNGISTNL
Experimental: (§1) The reaction was terminated after 5-30 min at 37° C. with an equal volume of 0.3 M sodium acetate, 8 M urea pH 5.0. Charged and uncharged tRNA were separated by acid-urea acrylamide gel electrophoresis, blotted to nitrocellulose and probed with a 5μ ^32P-end-labelled, 72-base oligonucleotide complementary to tRNACUA. Radioactivity was analysed with a STORM Phosphorimager (Amersham Biosciences).
Aminoacylation assay in acid-urea gels. […] Following incubation at 37° C. for 5 to 30 minutes, the reaction was terminated by addition of an equal volume of 2× loading dye (0.3 M sodium acetate, 8 M urea, pH 5.0) and charged and uncharged tRNA species analysed by acid-urea acrylamide gel electrophoresis following the methods outlined in Jester et al. Samples were electrophoresed in 14% polyacrylamide gels buffered with a 0.3 M sodium acetate-7 M urea solution, pH 5.0, at 50 volts and 4° C. for 24 hours. The same buffer without urea was used in the electrode chambers, and was replaced with fresh buffer every 6-8 hours. Finished gels were transblotted for 2 hours at 40 volts in 4° C. in a blotting solution of 10 mM Tris-acetate, 5 mM sodium acetate, and 0.5 mM EDTA, pH 8.0. The blot was then cross-linked by ultraviolet radiation (15000 μJ/cm2 per side) then prehybrized in 0.25 M sodium phosphate buffer, pH 7.2, and 5.7% SDS for at least 30 minutes. In order to detect charged and uncharged tRNACUA a 72 base oligonucleotide complementary to full length of tRNACUA was labeled with γ-^32P ATP and polynucleotide kinase. The probe was hybridized with the blot overnight at room temperature, then agitated at 22° C. for 5 minute in 10 mM sodium citrate, 150 mM NaCl, 1% SDS, pH 7.0, then agitated with two changes of 5 mM sodium citrate, 75 mM sodium chloride, 1% SDS, pH 7.0, for 5 minutes each. Radioactivity on the blot was imaged and analyzed using a STORM Phosphorimager (Amersham Biosciences).

[2] = system: E. coli BL21 (DE3) expressing pylT, pylS and mtmB1; assay: Pyrrolysine-dependent amber suppression (mtmB1 UAG readthrough, anti-MtmB immunoblot); type: cell-based; conditions: 1 mM in the medium, induced 4 h
Experimental: To test for amber suppression, overnight cultures were grown in Luria-Bertani broth (3 ml) with 100 μg ml^−1 ampicillin. Subsequently, 200 μl was inoculated into 1 ml fresh medium and grown to a D600 of 0.6. […] The mtmB1 gene products in equivalent amounts of lysates were then analysed by immunoblotting of a SDS 12.5% polyacrylamide gel with affinity-purified rabbit anti-MtmB antibody^6. The Rainbow Molecular Weight markers (Amersham Biosciences) were used.
To test for amber suppression, overnight cultures of a strain bearing one of the plasmids were grown in LB broth (3 mL) with 100 ug/ml final ampicillin. Subsequently, 200 μl of each culture was inoculated into 1 ml of fresh LB medium with ampicillin, and grown to an A600 of approximately 0.6. […] The cultures were then centrifuged for 1 minute 16,000×g, and the cell pellets lysed in 125 mM Tris HCl, 4.6% SDS, 20% glycerol and 10% (v/v) β-mercaptoethanol, pH 6.8, at 90 degrees for 10 minutes.
Extracts were electrophoresed in a 12.5% SDS-PAGE gel, then electroblotted overnight at 150 mA onto PVDF membrane (Bio-Rad Labs, Hercules, Calif.). The membrane was then incubated for 1 hour at room temperature with Western Breeze blocking solution (Invitrogen). […]

His6-PylS = target: T2, His6-PylS (Methanosarcina barkeri, UniProt Q6WRH6); assay: Gel-shift aminoacylation assay with N-terminally His-tagged PylS; type: biochemical
T2 construct: His6 (hexahistidine) (N); made in house
T2 sequence (Q6WRH6 whole entry): as above
Experimental: as §1
Aminoacylation assay in acid-urea gels. […] Following incubation at 37° C. for 5 to 30 minutes, the reaction was terminated by addition of an equal volume of 2× loading dye (0.3 M sodium acetate, 8 M urea, pH 5.0) and charged and uncharged tRNA species analysed by acid-urea acrylamide gel electrophoresis following the methods outlined in Jester et al. Samples were electrophoresed in 14% polyacrylamide gels buffered with a 0.3 M sodium acetate-7 M urea solution, pH 5.0, at 50 volts and 4° C. for 24 hours. The same buffer without urea was used in the electrode chambers, and was replaced with fresh buffer every 6-8 hours. Finished gels were transblotted for 2 hours at 40 volts in 4° C. in a blotting solution of 10 mM Tris-acetate, 5 mM sodium acetate, and 0.5 mM EDTA, pH 8.0. […] Radioactivity on the blot was imaged and analyzed using a STORM Phosphorimager (Amersham Biosciences).

PylS-His6 [3] = target: T1, PylS-His6
Experimental: The pyrophosphate exchange reaction was essentially performed following the method of Cole and Schimmel. All reactions were performed in duplicate at 37° C. The 100 to 200 μl reactions contained (unless noted) 0.3 to […] PylSHis6. […] The specific activity of the radiolabel was adjusted from 4 to 10 dpm/pmol). The concentration of protein was 0.3 to 1 μM. At specific times, 25 μl aliquots were removed and quenched in 500 μl of a stop solution containing 1.6% (w/v) activated acid-washed charcoal (Sigma Chemical Co., St. Louis, Mo.), 80 mM sodium tetrapyrophosphate, and 3.5% (v/v) perchloric acid. Samples were filtered through Whatman GF/C glass-fiber filters and then the filter was washed three times with 5 ml of 40 mM sodium tetrasodium pyrophosphate solution containing 1.7% perchloric acid (v/v) and once with 5 ml 100% ethanol. Filters were dried at 80° C. for 5 minutes then placed in 20 ml scintillation vials containing 10 ml of Ultima Gold F scintillation cocktail (PerkinElmer), shaken once, and counted in a liquid scintillation analyzer. Identical reactions without amino acid, ATP, or enzyme were also set up as negative controls in duplicate. […] One substrate was kept constant at a concentration higher than its respective apparent Km value.

[4] = Stability studies to NaOH, LiOH, TFA (TLC); type: physicochemical
Experimental: Stability Studies of Compound (8) to NaOH. NaOH (6 M, 20 μL, 0.12 mmol) was added to a solution of compound 8 (0.15 M, 100 μL, 0.015 mmol). The resulting mixture was allowed to react at rt over 3 days, during which the degradation of compound 8 was monitored by a ninhydrin TLC assay (CHCl3—MeOH—NH4OH(aq)=2:2:1).
Stability Studies of Compound (8) to LiOH. Compound 8 (21.9 mg, 84 μmol) was dissolved in water (2 mL) and LiOH-H2O (84.5 mg, 2.0 mmol) was added. This mixture was allowed to react at rt. […] After 5 days, the solution was evaporated to dryness at rt, redissolved in MeOH (0.5 mL), and purified on chromatography silica gel.
Stability Studies of Compound (8) to TFA. Compound 8 (21.7 mg, 0.083 mmol) was dissolved in MeOH (2 mL) and TFA (200 μL) was added. […] The mixture was allowed to react to completion for 2 days at rt. The resulting mixture was evaporated to dryness, dissolved in MeOH (0.5 mL), and subjected to chromatography on silica gel.

[5] = system: E. coli BW25141(DE3) with pylT, pylS and UAG-mutant uidA; type: cell-based
Source text: In order to avoid interference by the residue uidA gene, we employed a strain with most ofuidA deleted, E. coli BW25141(DE3). This strain was transformed with pDLGUS, a variant of the pEC03 plasmid in which the mtmB1 gene was removed and the uidA gene introduced in its place.

O=C(O)[C@@H]1CCCN1 [proline, reference compound]
H/D exchange of protons on ring carbons (NMR H/D exchange studies; CD3OD/D2O with base, rt, 1 day): No evidence for H/D exchange

COC(=O)[C@H](CCCCNC(=O)[C@@H]1N=CC[C@H]1C)NC(=O)C(F)(F)F [Compound 7, Nα-Trifluoroacetyl-L-pyrrolysine methyl ester]
change in NMR (NMR H/D exchange studies; CD3OD with D2O, rt, 3-day period): No change was observed
time to complete disappearance of the C5 proton peak (H/D exchange) (NMR H/D exchange studies; NaOD added, CD3OD/D2O): 25 h

NCCCC[C@H](N)C(=O)O [lysine, reference compound]
aminoacylation of tRNAIYS in the M. acetivorans tRNA pool (PylS-His6 [1]): does not aminoacylate
formation of charged tRNACUA species (PylS-His6 [1]; amino acids at 50 μM, cellular tRNA pool): not formed
UAG readthrough of mtmB1 (50-kDa MtmB) [2]: could not be replaced
tRNA synthetase activity (His6-PylS): no lysyl-tRNA synthetase activity was detectable
isotopic exchange into ATP above background (PylS-His6 [3]; 1 mM, up to 30 min): no detectable isotopic exchange

Nc1ncnc2c1ncn2[C@@H]1O[C@H](COP(=O)(O)OP(=O)(O)OP(=O)(O)O)[C@@H](O)[C@H]1O [ATP]
Km (PylS-His6 [3]; read-out: apparent Km, 37° C., pH 7.2): 2 µM

C[C@@H]1CC=N[C@H]1C(=O)NCCCC[C@H](N)C(=O)O [pyrrolysine, L-pyrrolysine]
conversion under acidic conditions ([4]; acidic conditions): converted to its enamine form
increase of beta-glucuronidase activity ([5]; 1 mM synthetic pyrrolysine versus absence of pyrrolysine): approximately 100 fold
beta-glucuronidase activity ([5]; induced with IPTG, 1 mM synthetic pyrrolysine): 4. umol/min·mg protein
aminoacylation of tRNAIYS in the M. acetivorans tRNA pool (PylS-His6 [1]): does not aminoacylate
maximal conversion of deacylated tRNACUA to charged species (PylS-His6 [1]; deacylated M. acetivorans cellular tRNA pool, with ATP and PylS-His6): 50%
maximum of tRNACUA transcribed in vitro aminoacylated (PylS-His6 [1]; in vitro transcribed tRNACUA): 43%
UAG readthrough of mtmB1 (50-kDa MtmB) [2]: large amounts of 50-kDa MtmB
tRNA synthetase activity (His6-PylS): does have pyrrolysyl-tRNA synthetase activity
apparent Vmax (PylS-His6 [3]; exchange reaction): 120 nmol min^−1 per mg PylS

C[C@@H]1CC=N[C@H]1C(=O)NCCCC[C@H](N)C(=O)[O-].[Li+] [Compound 8, L-Pyrrolysine lithium salt]
degradation by LiOH (TLC) ([4]; LiOH in water, rt, after 24 h): two new bands
degradation by NaOH (ninhydrin TLC) ([4]; NaOH, rt, over 3 days): One new band
degradation by TFA (TLC) ([4]; TFA in MeOH, after 1 h, complete in 2 days at rt): one new band
